Measurements published in patent US20260125381A1, “NOVEL Kv3 CHANNEL MODULATORS” (Merck Sharp & Dohme LLC, priority 2022, published 2026).

Experiments:
Kv3.1 [1] = target: T1, Kv3.1 (Homo sapiens, UniProt P48547); experiment: FLIPR based Tl+ influx assay for positive modulators of Kv3.1; assay type: cell-based; design: expressed in transfected cells; host or cells: ARF (assay-ready frozen) cells; conditions: thallium influx, FLIPR Tetra, 1536-well
T1 sequence (P48547 1-511): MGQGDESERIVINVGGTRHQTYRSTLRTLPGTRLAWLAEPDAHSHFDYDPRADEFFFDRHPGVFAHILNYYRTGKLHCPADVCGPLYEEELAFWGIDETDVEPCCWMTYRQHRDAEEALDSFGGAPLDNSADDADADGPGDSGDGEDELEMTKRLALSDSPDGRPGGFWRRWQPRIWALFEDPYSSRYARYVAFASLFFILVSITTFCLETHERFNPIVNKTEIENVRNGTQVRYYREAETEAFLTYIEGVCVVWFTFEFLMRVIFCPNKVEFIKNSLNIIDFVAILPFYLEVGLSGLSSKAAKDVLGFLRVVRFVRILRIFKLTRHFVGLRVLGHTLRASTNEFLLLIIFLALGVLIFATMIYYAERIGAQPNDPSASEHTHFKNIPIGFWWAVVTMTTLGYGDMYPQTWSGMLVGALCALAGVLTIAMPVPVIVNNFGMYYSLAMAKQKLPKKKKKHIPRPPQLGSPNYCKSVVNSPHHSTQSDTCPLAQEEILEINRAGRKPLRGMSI
Method: FLIPR Based Tl+ Influx Assay for Characterization of Positive Modulators of Kv3.1
Thallium influx assay was performed following manufacturer instruction with modifications. The major improvement was that the assay was miniaturized in 1536w assay plate to achieve ultrahigh throughput. The cell culture medium used for cell plating was the same medium mentioned above without selection antibiotics. Twenty to twenty four hours prior to the assay day, ARF cells in frozen vials were thawed in 37° C. water bath and washed once in the culture medium. The cell density was adjusted at 8.3×E5/ml and plated in 1536-w PDL coated plates (Aurora. US) at 4 μl/w, using Multidrop Combi (Thermo Fisher Scientific, Waltham, MA USA). Plates were then centrifuged at 300 g for two minutes for cells to achieve uniform settlement. The MicroClime plate lid (Labcyte Inc., San Jose, CA USA) was used to prevent evaporation from the edge wells and minimize the edge effect. Plates were incubated at 37° C., 5% CO2 overnight.
On the next day, the cell plates were further loaded with 3 μl/w of fluorescence dye solution containing all required components in the assay kit as instructed by the manufacturer protocol and incubated at room temperature for 60 min. Control and test compounds were then added into the cell plate by acoustic liquid transfer Echo (Labcyte Inc., San Jose, CA USA). After 10 min incubation with compounds, the cell plate was transferred to FLIPR Tetra platform (Molecular Devices, Sunnyvale, CA, USA) for recording fluorescence signal. The plate was recorded with excitation wavelength at 475-485 nm and emission wavelength at 510-545 nm. Data acquisition was taken at 1 Hz and completed in 130 seconds. After the first 10 s of recording, 3 μl of stimulus buffer was added into each well by liquid handler equipped in the FLIPR platform. The buffer contains 95 mM of Na2SO4 to maintain osmolarity, 7.5 mM of K2SO4 to depolarize membrane and activate the voltage gated Kv3.1 or 3.4 channels and 1 mM of Tl2SO4 to provide 2 mM Tl+ for Tl sensitive fluorescent signal. […]

Kv3.1 [2] = target: T1, Kv3.1; experiment: Automated whole cell patch clamp (Qube) on HEK cells overexpressing Kv3.1; assay type: cell-based; design: expressed in transfected cells; host or cells: HEK cells, stably transfected; conditions: stably transfected HEK cells overexpressing Kv3.1
Method: In Vitro Characterization of Positive Modulators of Kv3.1 in Automated Patch Clamp
Automated whole cell patch-clamp was performed on the Qube using stably transfected HEK cell lines overexpressing Kv3.1 channels. Stable cell lines expressing Kv3.2 or Kv3.4 were used for counter-screening. Cells were held at −70 mV. Two depolarizing test pulses to −15 mV (200 ms) and +20 mV (200 ms) were given at a frequency of 0.1 Hz. Kv3.1 current amplitude elicited by test pulses was measured before and after compound addition at steady state. Ten concentrations were tested for each molecule. Raw data from Qube experiments were retrieved from the Qube database and analyzed using the Sophion Analyzer software and DR FIT Spotfire analysis. Apparent compound EC50 values, maximum potentiation, and EC2xIK (effective concentration at which a doubling in K current was observed) were determined using dose response 4 parameter curve fitting.

EC50 (Kv3.1 [1]) [nM] | EC50 (Kv3.1 [2]) [nM] | SMILES
1630 | 4350 | Cc1cccc(Oc2ccc(-n3c(=O)[nH]c4cccnc43)cn2)c1C [Example 1, 3-(6-(2,3-dimethylphenoxy)pyridin-3-yl)-1,3-dihydro-2H-imidazo[4,5-b]pyridin-2-one]
31.2 |  | Cc1ncc2[nH]c(=O)n(-c3cnc(Oc4cccc5c4C(C)(C)CO5)c(Cl)c3C)c2n1 [Example 3, 9-(5-chloro-6-((3,3-dimethyl-2,3-dihydrobenzofuran-4-yl)oxy)-4-methylpyridin-3-yl)-2-methyl-7,9-dihydro-8H-purin-8-one]
146 | 213 | Cc1ncc2[nH]c(=O)n(-c3cnc(Oc4cccc5c4C(C)(C)CO5)c(Cl)c3)c2n1 [Example 2, 9-(5-chloro-6-((3,3-dimethyl-2,3-dihydrobenzofuran-4-yl)oxy)pyridin-3-yl)-2-methyl-7,9-dihydro-8H-purin-8-one]
